Results on 60 compounds are retold here after PubChem BioAssay AID1159585 (Gregory J. Crowther, 2016).

The target in the assay is Calcium-dependent protein kinase 1 (Plasmodium falciparum (isolate 3D7)) (UniProt P62344). The assay can be described thus: PfCDPK1 kinase inhibitors, biochemical, TCAMS library (AID 1159585).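 Note: inhibitors leave more ATP so luminescence rises with inhibition.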 The following applies: recombinant PfCDPK1, Kinase-Glo ATP depletion luminescence. (In general: Kinase-Glo reads ATP consumption through a luciferase reaction.)
Calcium-dependent protein kinase 1 (Plasmodium falciparum (isolate 3D7)), sequence (P62344 whole entry, looked up): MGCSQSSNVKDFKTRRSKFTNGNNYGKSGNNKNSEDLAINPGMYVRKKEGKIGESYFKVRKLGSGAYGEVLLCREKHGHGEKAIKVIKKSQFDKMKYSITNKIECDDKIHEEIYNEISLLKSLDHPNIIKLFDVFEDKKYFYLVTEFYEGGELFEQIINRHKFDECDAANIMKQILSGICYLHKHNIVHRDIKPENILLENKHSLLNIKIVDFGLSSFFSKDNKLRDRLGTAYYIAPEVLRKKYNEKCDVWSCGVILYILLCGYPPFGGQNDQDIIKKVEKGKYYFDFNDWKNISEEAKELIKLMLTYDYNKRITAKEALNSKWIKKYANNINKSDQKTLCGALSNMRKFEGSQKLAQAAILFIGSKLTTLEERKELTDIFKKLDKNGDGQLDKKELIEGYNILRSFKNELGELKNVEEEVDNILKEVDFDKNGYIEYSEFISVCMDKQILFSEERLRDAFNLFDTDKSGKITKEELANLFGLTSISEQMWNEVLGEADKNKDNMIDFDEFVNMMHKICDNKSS
`O=c1[nH]ccc2nc(N[C@@H]3CCNC3)nc(Nc3cc(Cl)cc(Cl)c3)c12`: the IC50 is 33 nM.
Turning to `CC(C)(CNCc1ccc(C(F)(F)F)cc1)c1nc(-c2ccc(Cl)c(O)c2)c(-c2ccnc(N)n2)[nH]1`, the IC50 is 353 nM.
Regarding `NS(=O)(=O)c1cccc(Nc2nccc(-c3c(-c4cccc(NC(=O)c5c(F)cccc5F)c4)nn4ccccc34)n2)c1`, the IC50 is 20 nM.
On to `Cc1cccc(Nc2nc(NCCCCN)nc3cc[nH]c(=O)c23)c1`, for which the IC50 was 566 nM.
For `COc1ccc(Nc2ncc(C#N)c(Nc3ccccc3C(N)=O)n2)cc1N1CCN(C)CC1`, the IC50 is 89 nM.
In the case of `CC(C)(CN)c1nc(-c2ccc(Br)c(O)c2)c(-c2ccncc2)[nH]1`, the IC50 is 19 nM.
As to `CNC(=O)c1ccccc1Nc1nc(Nc2ccc(N3CCN(C)CC3)nc2)ncc1C`, the IC50 is 45 nM.
As for `Cc1cc(Nc2ncc(Cl)c(Nc3ccccc3C(N)=O)n2)n[nH]1`, the figure is 76 nM.
As for `COc1ccc(Nc2ncc(Cl)c(Nc3cccnc3C(N)=O)n2)cc1N1CCN(C)CC1`, the figure is 559 nM; as for `COc1ccc(Nc2ncc3c(-c4cccc(NC(=O)Cc5ccc(O)cc5)c4)c[nH]c3n2)cc1OC`, 98 nM.
`CCn1c(-c2nc(-c3ccnc(N4CCN(C)CC4)c3)cnc2N)nc2cc(S(C)(=O)=O)ccc21`: the IC50 was 654 nM.
As for `Cc1ccc(Nc2ccnc(Nc3ccc4c(c3)CS(=O)(=O)C4)n2)cc1O`, the figure is 416 nM; as for `N#CCc1ccc(Nc2nccc(Nc3ccc(Oc4ccccc4)cc3)n2)cc1`, 798 nM.
As for `CS(=O)(=O)Nc1cccc(-c2cnc3[nH]cc(-c4ccc(CN)cc4)c3c2)c1`, the figure is 552 nM.
Consider `Oc1cc(-c2nc(-c3ccccc3)[nH]c2-c2ccncc2)ccc1Cl`, for which the IC50 was 975 nM.
To `O=C(Nc1cccc(-c2nn3ncccc3c2-c2ccnc(Nc3ccccc3)n2)c1)c1c(F)cccc1F` belongs 39 nM.
As for `COc1cc2nccc(Nc3ccc(Oc4ccccc4)cc3)c2cc1OC`, the figure is 145 nM; as for `COc1ccc(Nc2ncc(OC)c(Nc3ccccc3C(N)=O)n2)cc1N1CCN(C)CC1`, 967 nM; as for `Cc1nnc(-c2cccc(Nc3ccnc4cc(-c5nccs5)ccc34)c2)o1`, 186 nM.
With `O=c1[nH]ccc2nc(N[C@@H]3CCNC3)nc(Nc3ccc4c(c3)S(=O)(=O)CC4)c12`, the IC50 is 235 nM.
On to `CCn1c(-c2nonc2N)nc2c(-c3cccc(NC(=O)Nc4cccc(C(F)(F)F)c4)c3)ncc(OCCCN)c21`, for which the IC50 is 15 nM.
Take `CN1CCN(c2ccc(Nc3ncc(C#N)c(Nc4ccccc4C(N)=O)n3)cc2)CC1`: the IC50 is 12 nM.
To `CN1CCN(CCCNCc2cccc(Nc3nccc(Nc4ccc(Oc5ccccc5)cc4)n3)c2)CC1` belongs 261 nM.
For the compound `NCCCNc1nc(Nc2cccc(C(N)=O)c2)c2c(=O)[nH]ccc2n1`, the IC50 was 750 nM.
Turning to `CCn1c(-c2nonc2N)nc2c(-c3cccc(NC(=O)Nc4cccc(C#N)c4)c3)ncc(OCCCN)c21`, the IC50 is 182 nM.
As to `NCC(NC(=O)c1ccc(-c2c[nH]c3ncccc23)s1)c1ccccc1` (stereo not given), the IC50 was 29 nM.
As to `COc1ccc(-c2cnc3ccc(N4CCCC4)nn23)cc1OC`, the IC50 is 310 nM.
In the case of `CC(=O)Nc1cccc(Nc2nccc(Nc3ccc(Oc4ccccc4)cc3)n2)c1`, the IC50 is 425 nM.
To `CC(C)(CNC(=O)C1CCN(Cc2ccoc2)CC1)c1nc(-c2ccc(Cl)c(O)c2)c(-c2ccncc2)[nH]1` belongs 425 nM; to `CC(c1cccc(Nc2nccc(-c3c(-c4cccc(NC(=O)c5c(F)cccc5F)c4)nn4ncccc34)n2)c1)S(C)(=O)=O` (stereo not given), 95 nM; to `CN(C)Cc1ccc(-c2ccc3c(Nc4ccc(Cl)cc4F)ccnc3c2)o1`, 185 nM.
For the compound `O=C(NCC(c1ccc(C(F)(F)F)cc1)N1CCCC1)c1cc(-c2ccncc2)c(-c2cccc(O)c2)o1` (stereo not given), the IC50 was 283 nM.
For `CN1CCN(Cc2cccc(Nc3nccc(Nc4ccc(Oc5ccccc5)cc4)n3)c2)CC1`, the IC50 is 801 nM.
For `NS(=O)(=O)CCc1cccc(Nc2nccc(-c3c(-c4cccc(NC(=O)c5c(F)cccc5F)c4)nn4ccccc34)n2)c1`, the IC50 was 20 nM.
As for `CS(=O)(=O)CCNCc1cccc(-c2ccc3c(Nc4cc(O)c(Cl)cc4F)ccnc3c2)c1`, the figure is 71 nM; as for `CS(=O)(=O)Nc1cccc(-c2cnc3[nH]cc(-c4cccc(CN)c4)c3c2)c1`, 387 nM.
As for `O=C(NCCN1CCCCC1)c1cccc(Nc2nccc(Nc3ccc(Oc4ccccc4)cc3)n2)c1`, the figure is 250 nM; as for `O=S1(=O)NCc2ccc(Nc3nccc(Nc4ccc5c(cnn5Cc5ccccc5)c4)n3)cc21`, 110 nM.
As for `COc1ccc2nc(-c3cc(-c4ccc(NC(C)=O)cc4)cnc3N)[nH]c2c1`, the figure is 501 nM; as for `Cn1cc(-c2ccnc3[nH]c(-c4cccc(CNC5CCC(O)CC5)c4)cc23)cn1` (stereo not given), 46 nM; as for `CCN(CC)CCOc1ccc(Nc2ncc3cc(-c4c(Cl)cccc4Cl)c(=O)n(C)c3n2)cc1`, 780 nM.
As for `CC(C)(CNC(=O)C1CCN(Cc2ccc(Cl)cc2)CC1)c1nc(-c2ccc(Cl)c(O)c2)c(-c2ccncc2)[nH]1`, the IC50 was 347 nM.
In the case of `CN(C)CCNCc1cccc(-c2ccc3c(Nc4ccc(Oc5ccccn5)cc4)ccnc3c2)c1`, the IC50 is 845 nM.
As for `CN(C(=O)c1cc2c(-c3cncnc3)cccc2[nH]1)c1ccccc1`, the figure is 271 nM; as for `CN(C)Cc1ccc(-c2ccc3c(Nc4ccc(Oc5ccccn5)cc4)ccnc3c2)o1`, 513 nM.
As for `CCn1c(-c2nonc2N)nc2c(-c3cccc(NC(=O)Nc4ccc(C(F)(F)F)cc4)c3)ncc(OCCCN)c21`, the figure is 959 nM; as for `Oc1cccc(-c2cnc3ccc(NCc4ccc(F)cc4)nn23)c1`, 115 nM; as for `CC(C)(NCc1ncc[nH]1)c1nc(-c2ccc(Cl)c(O)c2)c(-c2ccncc2)[nH]1`, 144 nM.
To `COc1ccc(-c2cnn3ccc(Nc4cc(OC)c(OC)c(OC)c4)nc23)cc1OC` belongs 157 nM; to `CS(=O)(=O)Cc1ccc(Nc2nccc(N3CCCc4cc(NC(=O)Nc5cccc(C(F)(F)F)c5)ccc43)n2)cc1`, 145 nM; to `O=C(NCCN1CCC(c2ccncc2)CC1)c1ccc(Nc2nccc(Nc3ccc(Oc4ccccc4)cc3)n2)cc1`, 135 nM.
In the case of `NCc1ccc(Nc2nccc(Nc3ccc(-c4ccccc4)cc3)n2)cc1`, the IC50 is 375 nM.
Take `CNC(=O)c1ccccc1Nc1nc(Nc2ccc(C(=O)O)cc2)ncc1Cl`: the IC50 was 246 nM.
As for `Cc1ccc(Nc2nccc(Nc3ccc4c(c3)nc(Nc3cc(C(C)(C)C)on3)n4C)n2)cc1S(C)(=O)=O`, the figure is 242 nM; as for `CC(=O)Nc1cccc(Nc2nccc(-c3c(-c4cccc(NC(=O)c5c(F)cccc5F)c4)nn4ncccc34)n2)c1`, 15 nM.
For the compound `CC(c1cccc(Nc2nccc(-c3c(-c4cccc(NC(=O)c5c(F)cccc5F)c4)nn4ccccc34)n2)c1)S(C)(=O)=O` (stereo not given), the concentration for half-maximal inhibition (IC50) was 21 nM.
Consider `CS(=O)(=O)Cc1ccc(Nc2nccc(-c3c(-c4cccc(NC(=O)c5c(F)cccc5F)c4)nn4ncccc34)n2)cc1`, for which the IC50 is 11 nM.
For `Nc1ncc(-c2cn[nH]c2)cc1-c1nc2ccc(F)cc2[nH]1`, the IC50 is 150 nM.
Regarding `Nc1ncc(-c2cn[nH]c2)cc1-c1nc2ncc(Cl)cc2[nH]1`, the IC50 is 280 nM.
For the compound `Oc1cc(Nc2ccnc3cc(I)ccc23)c(F)cc1Cl`, the IC50 is 282 nM.

For orientation: IC50 means the midpoint of a concentration-inhibition curve.
